# Experiments:
# Type in all cases: functional
# [1] = test system: Staphylococcus aureus; assay: Antibacterial activity against Staphylococcus aureus assessed as inhibition of bacterial growth incubated for 24 hrs by microbroth two-fold dilution method
# [2] = test system: Escherichia coli; assay: Antibacterial activity against Escherichia coli assessed as inhibition of bacterial growth incubated for 24 hrs by microbroth two-fold dilution method
# [3] = test system: Staphylococcus aureus; assay: Antibacterial activity against Staphylococcus aureus assessed as diameter of the inhibition circle at 1 mg/ml incubated for 48 hrs
# [4] = test system: Streptococcus agalactiae; assay: Antibacterial activity against Streptococcus agalactiae assessed as inhibition of bacterial growth incubated for 24 hrs by microbroth two-fold dilution method
# [5] = test system: Escherichia coli; assay: Antibacterial activity against Escherichia coli assessed as bacterial growth by measuring optical density at 0.5 times MIC incubated for 12 hrs by real time growth curve analysis
# [6] = test system: Staphylococcus aureus; assay: Antibacterial activity against Methicillin-resistant Staphylococcus aureus BNCC 337371 assessed as inhibition of bacterial growth incubated for 24 hrs by microbroth two-fold dilution method
# [7] = test system: Streptococcus agalactiae; assay: Antibacterial activity against Streptococcus agalactiae assessed as bacterial growth by measuring optical density at 1 to 2 times MIC incubated for 12 hrs by real time growth curve analysis
# [8] = test system: Escherichia coli; assay: Antibacterial activity against Escherichia coli assessed as bacterial growth by measuring optical density at 1 to 2 times MIC incubated for 12 hrs by real time growth curve analysis
# [9] = test system: Streptococcus agalactiae; assay: Antibacterial activity against Streptococcus agalactiae assessed as bacterial growth by measuring optical density at 0.5 times MIC incubated for 12 hrs by real time growth curve analysis
Structure (SMILES),MIC [1],MIC [2],MIC [4],inhibition zone diameter [3],Activity [3],OD [5],MIC [6],OD [7],OD [8],OD [9]
C=C[C@]1(C)C[C@@H](OC(=O)CSc2nc(N/N=C/c3ccccc3[N+](=O)[O-])c3ccsc3n2)[C@]2(C)[C@H](C)CC[C@]3(CCC(=O)[C@H]32)[C@@H](C)[C@@H]1O,7.81 µg/mL,7.81 µg/mL,0.0153 µg/mL,21.5 mm,–,–,–,–,–,–
C=C[C@]1(C)C[C@@H](OC(=O)CSc2nc(N/N=C/c3ccccc3Br)c3ccsc3n2)[C@]2(C)[C@H](C)CC[C@]3(CCC(=O)[C@H]32)[C@@H](C)[C@@H]1O,15.6 µg/mL,> 15.6 µg/mL,0.977 µg/mL,22.8 mm,–,–,–,–,–,–
C=C[C@]1(C)C[C@@H](OC(=O)CSc2nc(N/N=C/c3ccc(F)cc3)c3ccsc3n2)[C@]2(C)[C@H](C)CC[C@]3(CCC(=O)[C@H]32)[C@@H](C)[C@@H]1O,7.81 µg/mL,15.6 µg/mL,0.244 µg/mL,20.2 mm,–,–,–,–,–,–
C=C[C@]1(C)C[C@@H](OC(=O)CSc2nc(N/N=C/c3ccc(F)cc3F)c3ccsc3n2)[C@]2(C)[C@H](C)CC[C@]3(CCC(=O)[C@H]32)[C@@H](C)[C@@H]1O,7.81 µg/mL,> 15.6 µg/mL,0.061 µg/mL,22.8 mm,–,–,–,–,–,–
C=C[C@]1(C)C[C@@H](OC(=O)CSc2nc(N3CCC(C)CC3)c3ccsc3n2)[C@]2(C)[C@H](C)CC[C@]3(CCC(=O)[C@H]32)[C@@H](C)[C@@H]1O,15.6 µg/mL,> 15.6 µg/mL,7.81 µg/mL,10.9 mm,–,–,–,–,–,–
C=C[C@]1(C)C[C@@H](OC(=O)CSc2nc(N3CCCC3)c3ccsc3n2)[C@]2(C)[C@H](C)CC[C@]3(CCC(=O)[C@H]32)[C@@H](C)[C@@H]1O,3.91 µg/mL,> 15.6 µg/mL,0.061 µg/mL,17.8 mm,–,–,–,–,–,–
C=C[C@]1(C)C[C@@H](OC(=O)CSc2nc(N(C)CCN(C)C)c3ccsc3n2)[C@]2(C)[C@H](C)CC[C@]3(CCC(=O)[C@H]32)[C@@H](C)[C@@H]1O,0.0019 µg/mL,0.244 µg/mL,0.244 µg/mL,29.4 mm,–,<0.3,0.244 µg/mL,0.1,0.1,<0.3

# More lines, main results first:
MIC [1],MIC [2],MIC [4],Structure (SMILES),inhibition zone diameter [3],Activity [3],OD [5],MIC [6],OD [7],OD [8],OD [9]
0.244 µg/mL,3.91 µg/mL,0.122 µg/mL,C=C[C@]1(C)C[C@@H](OC(=O)CSc2ncc(C)c(NCCO)n2)[C@]2(C)[C@H](C)CC[C@]3(CCC(=O)[C@H]32)[C@@H](C)[C@@H]1O,27.6 mm,–,–,–,–,–,–
0.244 µg/mL,0.977 µg/mL,0.0076 µg/mL,C=C[C@]1(C)C[C@@H](OC(=O)CSc2nc(N3CCN(CC)CC3)c3c(C)csc3n2)[C@]2(C)[C@H](C)CC[C@]3(CCC(=O)[C@H]32)[C@@H](C)[C@@H]1O,31.2 mm,–,–,–,–,–,–
0.122 µg/mL,0.977 µg/mL,0.488 µg/mL,C=C[C@]1(C)C[C@@H](OC(=O)CSc2nc(NCCO)c3c(C)csc3n2)[C@]2(C)[C@H](C)CC[C@]3(CCC(=O)[C@H]32)[C@@H](C)[C@@H]1O,25.9 mm,–,–,–,–,–,–
0.122 µg/mL,3.91 µg/mL,0.488 µg/mL,C=C[C@]1(C)C[C@@H](OC(=O)CSc2nccc(NCCO)n2)[C@]2(C)[C@H](C)CC[C@]3(CCC(=O)[C@H]32)[C@@H](C)[C@@H]1O,–,27.3 mM,–,–,–,–,–
0.488 µg/mL,0.488 µg/mL,0.488 µg/mL,C=C[C@]1(C)C[C@@H](OC(=O)CSc2nc(NCCO)cc(C(F)(F)F)n2)[C@]2(C)[C@H](C)CC[C@]3(CCC(=O)[C@H]32)[C@@H](C)[C@@H]1O,29 mm,–,–,–,–,–,–
0.977 µg/mL,> 15.6 µg/mL,0.244 µg/mL,C=C[C@]1(C)C[C@@H](OC(=O)CSc2nc(N/N=C/c3ccccc3OC)c3ccsc3n2)[C@]2(C)[C@H](C)CC[C@]3(CCC(=O)[C@H]32)[C@@H](C)[C@@H]1O,21.1 mm,–,–,–,–,–,–
0.244 µg/mL,3.91 µg/mL,0.122 µg/mL,C=C[C@]1(C)C[C@@H](OC(=O)CSc2nc(N3CCC(N(C)C)CC3)c3ccsc3n2)[C@]2(C)[C@H](C)CC[C@]3(CCC(=O)[C@H]32)[C@@H](C)[C@@H]1O,27.2 mm,–,–,–,–,–,–
0.244 µg/mL,3.91 µg/mL,0.244 µg/mL,C=C[C@]1(C)C[C@@H](OC(=O)CSc2ncc(C)c(N3CCN(CC)CC3)n2)[C@]2(C)[C@H](C)CC[C@]3(CCC(=O)[C@H]32)[C@@H](C)[C@@H]1O,26.6 mm,–,–,–,–,–,–
0.122 µg/mL,7.81 µg/mL,0.244 µg/mL,C=C[C@]1(C)C[C@@H](OC(=O)CSc2nc(N3CCN(C)CC3)c3ccsc3n2)[C@]2(C)[C@H](C)CC[C@]3(CCC(=O)[C@H]32)[C@@H](C)[C@@H]1O,26.1 mm,–,–,–,–,–,–

# — ChEMBL document CHEMBL5120839, “Design, synthesis and antibacterial activity of novel pleuromutilin derivatives with thieno[2,3-d]pyrimidine substitution” (Eur J Med Chem, 2022)
